# Assay results from ChEMBL document CHEMBL4342470, “Detection of Active Granzyme A in NK92 Cells with Fluorescent Activity-Based Probe” (J Med Chem, 2020).
# Columns and labels:
# Assay type in all cases: cell-based
# Conditions in all cases: mda-mb-231, 24 h
# MDA-MB-231 [1] = test: Toxicity in human MDA-MB-231 cells assessed as reduction in cell viability at >1 uM incubated for 24 hrs by MTS assay
# MDA-MB-231 [2] = test: Toxicity in human MDA-MB-231 cells assessed as reduction in cell viability at <1 uM incubated for 24 hrs by MTS assay
# MDA-MB-231 [3] = test: Toxicity in human MDA-MB-231 cells assessed as reduction in cell viability at 10 uM incubated for 24 hrs by MTS assay
SMILES,Activity (MDA-MB-231 [1]),Activity (MDA-MB-231 [2]),Activity (MDA-MB-231 [3])
CN1\C(=C/C=C/C=C/C2N(CCCCCC(=O)NCCCCCC(=O)N3Cc4ccccc4C[C@H]3C(=O)NCC(=O)N3C4CCCCC4C[C@H]3C(=O)NC(CCCNC(=N)N)P(=O)(Oc3ccccc3)Oc3ccccc3)c3ccccc3C2(C)C)C(C)(C)c2ccccc21 (stereo partly drawn),Toxic,Non-Toxic,–
COC(=O)CCC(=O)N1Cc2ccccc2C[C@H]1C(=O)NCC(=O)N1C2CCCCC2C[C@H]1C(=O)NC(CCCNC(=N)N)P(=O)(Oc1ccccc1)Oc1ccccc1 (stereo partly drawn),–,–,Non-Toxic
